One experiment concerns the target T1, histamine H2-receptor (Cavia porcellus, UniProt P47747).
T1 construct: The spontaneously beating right atrium was dissected free from other tissues; from tissue; host or cells: isolated spontaneously beating right atrium of male Hartley strain guinea pigs
The following applies: Black et al., Nature, 236, 385 (1972); cited from earlier work.

A further experiment has as its system gastric acid secretion. Briefly: Gastric antisecretory activity in the gastric fistula rat. Type of experiment: in vivo, rat (male Long Evans). The following applies: sc, read-out: ED50 sc.
The next experiment concerns peptic ulcer disease. The following applies: clinical evaluation, Gray et al., Lancet, 1, 8001 (1977); cited from earlier work.

Read-outs that look alike come from different tables or passages of the source.

T1 sequence (P47747 whole entry): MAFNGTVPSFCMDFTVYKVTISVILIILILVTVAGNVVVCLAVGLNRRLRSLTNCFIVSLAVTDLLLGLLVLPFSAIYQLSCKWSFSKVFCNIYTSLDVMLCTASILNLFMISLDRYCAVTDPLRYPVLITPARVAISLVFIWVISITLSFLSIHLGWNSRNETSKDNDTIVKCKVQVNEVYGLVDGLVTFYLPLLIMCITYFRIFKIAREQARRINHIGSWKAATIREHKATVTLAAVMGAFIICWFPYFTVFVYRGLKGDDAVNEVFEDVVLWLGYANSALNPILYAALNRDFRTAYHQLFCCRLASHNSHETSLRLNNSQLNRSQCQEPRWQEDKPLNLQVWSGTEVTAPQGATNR

As to `CNC(=S)NCCCCc1cnc[nH]1` [burimamide], at histamine H2-receptor, the “type of antagonism at histamine H2-receptors” value is “competitive antagonist”.

As a reminder, the ED50 is the dose at which the effect has come halfway, by size or by number of responders. Consider `CN(C)Cc1ccc(CSCCNc2nsnc2N)o1` [Example 10, 3-amino-4-{2-[(5-dimethylaminomethyl-2-furyl)-methylthio]ethylamino}-1,2,5-thiadiazole], for which the ED50 with gastric acid secretion (gastric fistula rat) was found to be 0.77 µmol/kg.

In the case of `CN/C(=N/CCSCc1nc[nH]c1C)NC#N` [cimetidine, reference compound], the ED50 in the experiment on gastric acid secretion (Rattus norvegicus) turned out to be 3.48 µmol/kg. In the experiment with peptic ulcer disease, the “therapeutic effect in treatment of peptic ulcer disease” value is recorded as “effective therapeutic agent in the treatment of peptic ulcer disease”.

As to `Nc1nsnc1NCCCOc1cccc(CN2CCCCC2)c1` [Example 3, 3-Amino-4-[3-(3-piperidinomethylphenoxy)propylamino]-1,2,5-thiadiazole], the ED50 in the experiment on gastric acid secretion (gastric fistula rat) amounted to 0.094 µmol/kg.

On to `Nc1nsnc1NCCCOc1cccc(CN2CCCC2)c1` [Example 4, 3-Amino-4-[3-(3-pyrrolidinomethylphenoxy)propylamino]-1,2,5-thiadiazole], for which the ED50 in the experiment with gastric acid secretion (gastric fistula rat) amounted to 0.18 µmol/kg.

Regarding `Cc1cc(CSCCNc2nsnc2N)sc1CN(C)C` [Example 11, 3-Amino-4-{2-[(5-dimethylaminomethyl-4-methyl-2-thienyl)methylthio]ethylamino}-1,2,5-thiadiazole], the ED50 with gastric acid secretion (gastric fistula rat) was ~0.5 µmol/kg.

The values above are taken from patent US4440933A, “Process for preparing 1,2,5-thiadiazoles” (Bristol-Myers Company, priority 1983, dated 1984).
